Experimental findings from ChEMBL document CHEMBL1201862, “PubChem BioAssay data set” (2004) are described below.

Calls of active or inactive are those of the source. Where only a bound is given, the exact number is not on record here.

For assay [1], the target named is T1, Orexin receptor type 2 (Homo sapiens, UniProt O43614).
T1 sequence (O43614 whole entry): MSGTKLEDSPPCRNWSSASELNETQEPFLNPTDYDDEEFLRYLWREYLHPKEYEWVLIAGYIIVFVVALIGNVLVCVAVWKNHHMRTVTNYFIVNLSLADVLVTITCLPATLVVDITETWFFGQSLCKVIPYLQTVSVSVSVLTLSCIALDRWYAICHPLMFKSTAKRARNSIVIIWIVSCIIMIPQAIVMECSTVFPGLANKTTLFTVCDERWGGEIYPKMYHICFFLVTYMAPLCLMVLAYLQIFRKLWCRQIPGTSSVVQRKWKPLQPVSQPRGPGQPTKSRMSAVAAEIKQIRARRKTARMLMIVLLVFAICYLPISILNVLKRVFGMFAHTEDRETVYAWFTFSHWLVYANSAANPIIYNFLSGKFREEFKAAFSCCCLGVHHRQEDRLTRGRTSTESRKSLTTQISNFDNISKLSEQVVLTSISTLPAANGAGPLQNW
The assay can be described thus: Counterscreen assay for antagonists of the orexin 1 receptor (OX1R; HCRTR1): Fluorescence-based cell-based dose response assay for antagonists of the orexin 2 receptor (OX2R; HCRTR2), run by assay provider. The class given is functional. A general note: A counterscreen serves to expose hits that act by an unwanted route or on another target.

The target of assay [2] is T1, Orexin receptor type 2. The experiment in a line: Counterscreen assay for antagonists of the orexin 1 receptor (OX1R; HCRTR1): Homogeneous Time Resolved Fluorescence (HTRF)-based cell-based dose response assay for antagonists of the orexin 2 receptor (OX2R; HCRTR2), run by assay provider. Format: functional.
Assay [3] has as its target T2, Orexin/Hypocretin receptor type 1 (Homo sapiens, UniProt O43613).
T2 sequence (O43613 whole entry): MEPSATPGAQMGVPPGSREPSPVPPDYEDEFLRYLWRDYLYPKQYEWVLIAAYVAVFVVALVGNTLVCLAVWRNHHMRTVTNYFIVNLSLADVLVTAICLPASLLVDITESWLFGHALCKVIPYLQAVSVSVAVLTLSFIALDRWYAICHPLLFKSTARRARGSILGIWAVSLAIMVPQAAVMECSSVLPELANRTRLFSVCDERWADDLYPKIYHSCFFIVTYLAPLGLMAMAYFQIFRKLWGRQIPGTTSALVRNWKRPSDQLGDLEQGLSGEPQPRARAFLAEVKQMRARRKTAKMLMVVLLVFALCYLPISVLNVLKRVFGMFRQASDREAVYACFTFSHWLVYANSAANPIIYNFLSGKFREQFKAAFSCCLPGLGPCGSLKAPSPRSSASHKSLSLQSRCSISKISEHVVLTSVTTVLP
The assay can be described thus: Homogeneous Time Resolved Fluorescence (HTRF)-based cell-based high throughput dose response assay for antagonists of the orexin 1 receptor (OX1R; HCRTR1). [Related pubchem assays (depositor defined):AID434989, AID435008, AID463079, AID485270, AID492963, AID492964, AID492965, AID493232, AID504717, AID504718]. The class given is functional. For orientation: In TR-FRET formats the signal depends on donor and acceptor labels being close together.

Assay [4] addresses T2, Orexin/Hypocretin receptor type 1. The assay can be described thus: Fluorescence-based cell-based high throughput dose response assay for antagonists of the orexin 1 receptor (OX1R; HCRTR1). [Related pubchem assays (depositor defined):AID434989, AID435008, AID463079, AID485270, AID492963, AID492964, AID492965, AID493232, AID504717, AID504718]. Format: functional.
The test system of another assay is CHO-K1. The experiment in a line: Counterscreen for antagonists of the orexin 1 receptor (OX1R; HCRTR1): Homogeneous time resolved fluorescence (HTRF)-based cell-based dose response assay to identify antagonists of the parental CHO-K1 cell line. [Related pubchem assays (depositor defined):AID434989, AID435008, AID463079, AID485270, AID492963, AID492964, AID492965, AID493232, AID504699, AID504701]. The class given is functional. The conditions noted are these: Cricetulus griseus.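 Further: potency for inhibition of ATP-stimulated IP1 production as antagonists.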

Assay [5] can be described thus: Counterscreen for antagonists of the orexin 1 receptor (OX1R; HCRTR1): Fluorescence-based cell-based high throughput dose response assay to identify antagonists of the parental CHO cell line. [Related pubchem assays (depositor defined):AID434989, AID435008, AID463079, AID485270, AID492963, AID492964, AID492965, AID493232, AID504699, AID504701]. The class given is functional.

In assay [6] the target is T3, Endoribonuclease toxin MazF (Escherichia coli K-12, UniProt P0AE70).
T3 sequence (P0AE70 whole entry): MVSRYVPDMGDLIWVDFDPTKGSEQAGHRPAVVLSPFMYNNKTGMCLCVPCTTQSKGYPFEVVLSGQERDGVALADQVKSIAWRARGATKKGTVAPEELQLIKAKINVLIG
The assay can be described thus: substrate-only fluorescence increase artefacts – biochemical, single-stranded RNase substrate, counter-screen for MazEF activator project, dose response (AID 588502). Format: functional.

Assay [7] is described as follows: viability of uninfected HEp-2 cells – cell-based, HTS, cytotoxicity control for RSV inhibitor project, dose response (AID 2410). Format: functional. The conditions noted are these: human respiratory syncytial virus.
Assay [8] has as its target T3, Endoribonuclease toxin MazF. The experiment in a line: activation of MazEF endoribonuclease cleavage – biochemical, fluorescence, single-stranded RNA substrate, uHTS hits, dose response (AID 588481). The class given is functional.
Assay [9] is described as follows: loss of viability in HepG2 cells – cell-based, CellTiter-Glo, cherry-picked, cytotoxicity control for Shn3 inhibitor project, dose response (AID 624134). Format: functional.
Assay [10] addresses T4, Mitochondrial peptide methionine sulfoxide reductase (Bos taurus, UniProt P54149).
T4 sequence (P54149 whole entry): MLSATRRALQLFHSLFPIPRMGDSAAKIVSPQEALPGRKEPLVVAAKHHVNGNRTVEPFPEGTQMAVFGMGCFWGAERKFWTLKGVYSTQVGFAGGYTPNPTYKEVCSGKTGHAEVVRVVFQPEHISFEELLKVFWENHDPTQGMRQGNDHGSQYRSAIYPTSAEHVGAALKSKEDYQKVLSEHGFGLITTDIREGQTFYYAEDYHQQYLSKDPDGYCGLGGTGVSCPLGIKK
Format: functional.

A short description of assay [11]: reduction of Shn3 3'UTR-driven luciferase in osteoblasts – cell-based, Clone20 osteoblasts, firefly luciferase, cherry-picked, dose response (AID 624132).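 Further: firefly luciferase luminescence from reporter carrying the Shn3 3'UTR in osteoblasts.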 Format: functional.
Assay [12] is described as follows: non-specific 3'UTR reporter inhibition in Clone20-Shn3RL – cell-based, Renilla luciferase, cherry-picked, counter-screen for Shn3 inhibitor project, dose response (AID 624133). Format: functional.
Assay [13] deals with Ras and Rab interactor 1/Tyrosine-protein kinase ABL1 (Homo sapiens, UniProt P00519+Q13671). The class given is functional.
The nature of assay [14]: NIH3T3 cell viability loss – ATP luminescence, mouse fibroblasts, counter-screen, dose response (AID 2010).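 Further: cells exposed to compound for about 90 hours before reading.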 Format: functional, cell-based.
Assay [15] in a line: Trypanosoma cruzi growth suppression in host cells – NIH3T3 host cells, beta-gal luminescence, confirmation (AID 2044).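 Further: intracellular parasites grown in NIH/3T3 mouse fibroblasts as host cells; luminescent beta-galactosidase reporter signal from transgenic T. cruzi replicating inside host cells; inhibitors lower the luminescence signal.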 The class given is functional, cell-based.
Assay [16] concerns the target T5, DNA repair and recombination protein RAD54-like (Homo sapiens, UniProt Q92698).
T5 sequence (Q92698 whole entry): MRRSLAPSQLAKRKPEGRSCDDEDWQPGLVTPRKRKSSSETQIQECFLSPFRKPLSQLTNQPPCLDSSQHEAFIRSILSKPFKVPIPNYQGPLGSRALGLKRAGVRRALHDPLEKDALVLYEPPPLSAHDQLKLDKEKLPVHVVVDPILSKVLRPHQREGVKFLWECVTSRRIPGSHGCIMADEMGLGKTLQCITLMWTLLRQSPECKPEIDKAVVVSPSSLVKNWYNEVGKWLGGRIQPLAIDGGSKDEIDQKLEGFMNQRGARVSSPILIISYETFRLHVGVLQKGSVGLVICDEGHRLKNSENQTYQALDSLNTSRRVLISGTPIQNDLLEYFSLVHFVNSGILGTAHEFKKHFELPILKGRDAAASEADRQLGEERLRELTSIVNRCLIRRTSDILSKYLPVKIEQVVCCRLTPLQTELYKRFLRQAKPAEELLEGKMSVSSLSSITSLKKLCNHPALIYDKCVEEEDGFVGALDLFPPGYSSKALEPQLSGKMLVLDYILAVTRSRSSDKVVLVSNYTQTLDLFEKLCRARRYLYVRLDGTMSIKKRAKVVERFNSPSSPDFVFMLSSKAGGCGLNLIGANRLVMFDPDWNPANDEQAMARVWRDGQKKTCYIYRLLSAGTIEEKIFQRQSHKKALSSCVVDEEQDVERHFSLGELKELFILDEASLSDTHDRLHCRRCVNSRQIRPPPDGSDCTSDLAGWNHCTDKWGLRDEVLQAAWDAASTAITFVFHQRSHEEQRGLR
The assay can be described thus: RAD54 Holliday junction migration blockers – biochemical, fluorescence, cherry-picked samples, dose series, confirmation (AID 651657). Format: functional.

Assay [17] concerns the target T6, Sentrin-specific protease 1 (Homo sapiens, UniProt Q9P0U3).
T6 sequence (Q9P0U3 whole entry): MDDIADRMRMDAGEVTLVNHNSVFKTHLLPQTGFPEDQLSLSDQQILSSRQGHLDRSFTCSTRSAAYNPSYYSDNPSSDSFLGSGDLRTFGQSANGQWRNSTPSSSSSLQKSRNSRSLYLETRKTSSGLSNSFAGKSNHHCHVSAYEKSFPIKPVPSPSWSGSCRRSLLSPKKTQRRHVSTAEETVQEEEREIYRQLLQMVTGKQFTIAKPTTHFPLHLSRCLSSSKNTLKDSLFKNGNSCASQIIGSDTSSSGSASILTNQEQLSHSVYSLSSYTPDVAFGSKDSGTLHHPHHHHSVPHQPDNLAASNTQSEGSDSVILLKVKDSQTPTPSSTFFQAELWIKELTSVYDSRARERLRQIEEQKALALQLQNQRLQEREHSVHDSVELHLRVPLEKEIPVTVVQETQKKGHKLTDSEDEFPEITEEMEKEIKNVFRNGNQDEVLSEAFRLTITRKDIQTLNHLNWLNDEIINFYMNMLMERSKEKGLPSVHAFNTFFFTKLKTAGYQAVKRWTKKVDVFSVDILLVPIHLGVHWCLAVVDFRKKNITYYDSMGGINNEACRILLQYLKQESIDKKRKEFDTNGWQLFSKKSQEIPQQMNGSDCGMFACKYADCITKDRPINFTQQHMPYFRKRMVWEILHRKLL
The assay can be described thus: Dose response confirmation of small molecule inhibitors of the catalytic domain of the SUMO protease, SENP1 in a FRET assay. Format: functional. To be noted: read-out: IC50_Mean.

Assay [18] concerns the target T6, Sentrin-specific protease 1. The experiment in a line: SENP1 catalytic domain blockers, concentration series – biochemical, kinetic FRET, dose response (AID 651697). Format: functional. To be noted: read-out: IC50_Mean.

The term EC50 denotes the concentration giving half of the maximal effect. One may read the CC50 as the concentration that lowers cell viability or growth by half. What is called AC50 is the midpoint of the concentration-response curve, whichever way the signal moves.

Ras and Rab interactor 1/Tyrosine-protein kinase ABL1, sequence (P00519 whole entry): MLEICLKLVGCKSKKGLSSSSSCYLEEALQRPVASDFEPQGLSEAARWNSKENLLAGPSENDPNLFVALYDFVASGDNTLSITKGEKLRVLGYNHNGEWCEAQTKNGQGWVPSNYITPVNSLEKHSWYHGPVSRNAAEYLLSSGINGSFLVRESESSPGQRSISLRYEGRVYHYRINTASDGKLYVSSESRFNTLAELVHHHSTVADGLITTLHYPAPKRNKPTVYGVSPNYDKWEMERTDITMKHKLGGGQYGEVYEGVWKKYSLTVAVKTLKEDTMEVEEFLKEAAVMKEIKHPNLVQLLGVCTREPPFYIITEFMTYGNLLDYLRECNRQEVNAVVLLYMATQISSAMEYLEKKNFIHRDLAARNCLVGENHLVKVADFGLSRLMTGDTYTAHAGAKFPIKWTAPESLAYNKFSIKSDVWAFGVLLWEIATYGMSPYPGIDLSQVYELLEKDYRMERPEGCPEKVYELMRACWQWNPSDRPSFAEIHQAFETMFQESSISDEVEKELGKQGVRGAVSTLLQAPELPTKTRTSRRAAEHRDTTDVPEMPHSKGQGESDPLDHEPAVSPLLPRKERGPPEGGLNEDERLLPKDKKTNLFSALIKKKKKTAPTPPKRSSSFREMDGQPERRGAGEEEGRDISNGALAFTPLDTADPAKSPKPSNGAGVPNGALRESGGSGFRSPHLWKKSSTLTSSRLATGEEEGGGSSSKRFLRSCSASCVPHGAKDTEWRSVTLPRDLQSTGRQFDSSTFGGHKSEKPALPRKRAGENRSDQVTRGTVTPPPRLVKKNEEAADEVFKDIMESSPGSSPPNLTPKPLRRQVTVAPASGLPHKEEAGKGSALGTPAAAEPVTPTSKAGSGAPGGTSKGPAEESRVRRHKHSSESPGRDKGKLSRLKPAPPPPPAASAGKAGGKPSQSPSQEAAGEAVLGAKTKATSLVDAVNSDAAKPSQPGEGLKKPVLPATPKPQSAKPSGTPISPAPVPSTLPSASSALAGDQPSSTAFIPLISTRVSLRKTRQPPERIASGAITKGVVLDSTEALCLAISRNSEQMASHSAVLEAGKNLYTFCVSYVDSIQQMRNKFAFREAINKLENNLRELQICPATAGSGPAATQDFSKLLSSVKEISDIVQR
Ras and Rab interactor 1/Tyrosine-protein kinase ABL1, sequence (Q13671 whole entry): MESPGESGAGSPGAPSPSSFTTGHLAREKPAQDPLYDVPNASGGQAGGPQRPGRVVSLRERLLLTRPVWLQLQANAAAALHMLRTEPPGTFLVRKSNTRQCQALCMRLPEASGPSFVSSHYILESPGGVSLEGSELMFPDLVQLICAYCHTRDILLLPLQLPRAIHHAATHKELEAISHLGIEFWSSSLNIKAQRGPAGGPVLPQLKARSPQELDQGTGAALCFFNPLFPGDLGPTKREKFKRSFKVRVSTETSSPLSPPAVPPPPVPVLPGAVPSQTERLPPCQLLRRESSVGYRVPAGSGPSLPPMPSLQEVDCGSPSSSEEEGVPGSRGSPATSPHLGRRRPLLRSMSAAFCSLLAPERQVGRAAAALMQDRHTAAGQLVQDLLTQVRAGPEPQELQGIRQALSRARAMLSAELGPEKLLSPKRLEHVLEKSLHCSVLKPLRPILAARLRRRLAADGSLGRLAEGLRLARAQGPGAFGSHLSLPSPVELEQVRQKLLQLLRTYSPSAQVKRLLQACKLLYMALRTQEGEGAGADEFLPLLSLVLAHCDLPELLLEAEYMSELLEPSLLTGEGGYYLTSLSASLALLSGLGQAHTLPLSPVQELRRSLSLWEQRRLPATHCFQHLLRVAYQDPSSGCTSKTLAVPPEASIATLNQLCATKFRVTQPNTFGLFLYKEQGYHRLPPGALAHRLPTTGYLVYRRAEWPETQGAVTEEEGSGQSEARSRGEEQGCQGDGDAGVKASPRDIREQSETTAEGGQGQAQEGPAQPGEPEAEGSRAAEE

Take `COCCCNC(=O)CCC(=O)NNc1nc2ccccc2c2nc(-c3ccccc3)nn12`: the IC50 at Orexin receptor type 2 [1] is > 88.8 µM (inactive); on Orexin receptor type 2 [2] it was > 50 µM (inactive); in assay [3] it was 3.55 µM (active); in [4] it was 11.7 µM (inactive); in the assay with CHO-K1, > 66.2 µM (inactive); in [5], > 49.7 µM (inactive).
With `Cc1cccc2c3nc4ccccc4nc3n(C)c12`, the EC50 in assay [6] is 51.9 µM (inactive); in [8], > 99 µM (inactive). Moreover, the 50% cytotoxic concentration (CC50) in assay [7] was > 50 µM (active). Moreover, the IC50 is 11 µM (inactive) at Orexin receptor type 2 [1]; 5.76 µM (active) at Orexin receptor type 2 [2]; 1.33 µM (active) in assay [3]; 8.12 µM (active) in assay [4]; > 66.2 µM (inactive) in the assay with CHO-K1; > 49.7 µM (inactive) in assay [5].
On to `Cn1cnc([N+](=O)[O-])c1S(=O)(=O)Oc1ccccc1`, for which the half-maximal activity concentration (AC50) in [9] is 42.3 µM (active); in [11], 3.83 µM (active); in assay [12], 24.1 µM (active). The IC50 in assay [10] is 48 µM (inactive).
For `CN(C(=O)c1ccc(NC(=O)Cc2cccc(NC(=O)C3CCN(C(=O)C4CCCCC4)CC3)c2)cc1)C1CC1`, in assay [13], the IC50 was 18.9 µM (inactive).
Consider `COc1ccccc1NC(=O)[C@@H]1CCCN1S(=O)(=O)c1ccc(Cl)cc1`, for which the IC50 was 11 µM (inactive) on Orexin receptor type 2 [1]; 6.28 µM (active) at Orexin receptor type 2 [2]; 1.21 µM (active) in [3]; 13.2 µM (inactive) in assay [4]; > 66.2 µM (inactive) in the assay on CHO-K1; > 49.7 µM (inactive) in assay [5].
For `O=C(NN=Cc1sc(=O)[n-]c1-[n+]1ccc(-c2ccncc2)cc1)c1ccccc1`, in [10], the IC50 was 155 µM (inactive).
`OCCN1CCN(c2ncnc3c2sc2nc(N4CCOCC4)c4c(c23)CCC4)CC1`: the IC50 in assay [13] was 24.2 µM (inactive). Besides, the concentration for a half-maximal effect (EC50) was > 60 µM (not active) in [14] and 0.241 µM (active) in assay [15]. Further, the concentration at half-maximal activity (AC50) in assay [16] was 11.4 µM (active).
For the compound `CCN(CC)c1nc2cc(C)ccc2cc1/C=C(\C#N)C(N)=O`, the IC50 in assay [17] was 20 µM (inactive); in assay [18] it was 17.3 µM (active).
